Measurements taken from the NIST ThermoML archive (doi:10.1016/j.tca.2019.05.006).
± gives the expanded uncertainty stated by the source.

Assay: molar heat capacity at constant pressure
Conditions: 101.33 kPa, Crystal, DSC

## [Cu+2].[O-2] [copper(II) oxide]
300 K
  molar heat capacity at constant pressure: 44.4 ± 22 J/K/mol
325 K
  molar heat capacity at constant pressure: 45.8 ± 28 J/K/mol
350 K
  molar heat capacity at constant pressure: 46.8 ± 28 J/K/mol
375 K
  molar heat capacity at constant pressure: 47.7 ± 22 J/K/mol
400 K
  molar heat capacity at constant pressure: 48.5 ± 26 J/K/mol
425 K
  molar heat capacity at constant pressure: 49.2 ± 24 J/K/mol
450 K
  molar heat capacity at constant pressure: 49.7 ± 28 J/K/mol
475 K
  molar heat capacity at constant pressure: 50.3 ± 24 J/K/mol
500 K
  molar heat capacity at constant pressure: 50.8 ± 26 J/K/mol
525 K
  molar heat capacity at constant pressure: 51.2 ± 28 J/K/mol
550 K
  molar heat capacity at constant pressure: 51.6 ± 26 J/K/mol
575 K
  molar heat capacity at constant pressure: 51.9 ± 26 J/K/mol
600 K
  molar heat capacity at constant pressure: 52.3 ± 22 J/K/mol
625 K
  molar heat capacity at constant pressure: 52.6 ± 26 J/K/mol
650 K
  molar heat capacity at constant pressure: 52.9 ± 28 J/K/mol
675 K
  molar heat capacity at constant pressure: 53.2 ± 28 J/K/mol
700 K
  molar heat capacity at constant pressure: 53.5 ± 24 J/K/mol
725 K
  molar heat capacity at constant pressure: 53.8 ± 26 J/K/mol
750 K
  molar heat capacity at constant pressure: 54 ± 28 J/K/mol
775 K
  molar heat capacity at constant pressure: 54.3 ± 26 J/K/mol
800 K
  molar heat capacity at constant pressure: 54.5 ± 24 J/K/mol
825 K
  molar heat capacity at constant pressure: 54.7 ± 24 J/K/mol
